# ChEMBL document CHEMBL3407349, “The discovery of Polo-like kinase 4 inhibitors: identification of (1R,2S).2-(3-((E).4-(((cis).2,6-dimethylmorpholino)methyl)styryl). 1H.indazol-6-yl)-5'-methoxyspiro[cyclopropane-1,3'-indolin]-2'-one (CFI-400945) as a potent, orally active antitumor agent” (J Med Chem, 2015)
# Experiments:
# [1] = Growth inhibition of human SKBR3 cells after 5 days by SRB assay; format: functional; details: SK-BR-3, 120 h
# Cytochrome P450 1A2 = biological target: T1, Cytochrome P450 1A2 (Homo sapiens, UniProt P05177); assay: Inhibition of CYP1A2 (unknown origin) by fluorescence assay; format: ADME
# T1 sequence (P05177 whole entry): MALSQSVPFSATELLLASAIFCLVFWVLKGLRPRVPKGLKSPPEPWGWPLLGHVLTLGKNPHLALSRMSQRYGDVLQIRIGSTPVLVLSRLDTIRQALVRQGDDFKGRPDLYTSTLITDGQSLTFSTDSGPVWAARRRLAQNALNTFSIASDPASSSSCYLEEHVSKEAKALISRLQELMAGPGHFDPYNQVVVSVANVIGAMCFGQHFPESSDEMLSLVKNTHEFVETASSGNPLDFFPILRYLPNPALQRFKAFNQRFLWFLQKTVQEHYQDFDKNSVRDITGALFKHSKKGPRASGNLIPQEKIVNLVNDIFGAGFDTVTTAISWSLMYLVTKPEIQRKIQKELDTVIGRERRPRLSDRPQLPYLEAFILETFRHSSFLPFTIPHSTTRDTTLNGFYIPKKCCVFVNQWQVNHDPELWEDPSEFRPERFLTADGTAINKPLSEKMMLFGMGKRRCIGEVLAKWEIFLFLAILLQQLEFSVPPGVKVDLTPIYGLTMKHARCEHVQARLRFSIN
# [2] = Half life in mouse liver microsomes; details: liver microsomes
# [3] = Oral bioavailability in Sprague-Dawley rat at 5 mg/kg; format: ADME, organism-based; details: in vivo
# MDA-MB-468 [4] = assay: Antitumor activity against human MDA-MB-468 cells xenografted in CB-17 SCID mouse assessed as tumor growth inhibition at 3 mg/kg, po qd administered for 21 days; format: functional; details: MDA-MB-468, 504 h, read-out: TGI
# [5] = Growth inhibition of human HCT116 cells after 5 days by SRB assay; format: functional; details: HCT-116, 120 h
# [6] = AUC(infinity) in beagle dog at 5 mg/kg, po; format: ADME, organism-based, Canis lupus familiaris; design: time infinity, dose 5 mg/kg, route oral; details: plasma
# Cytochrome P450 2D6 = Cytochrome P450 2D6 (Homo sapiens, UniProt P10635); assay: Inhibition of CYP2D6 (unknown origin) by fluorescence assay; format: ADME
# Sequence of Cytochrome P450 2D6 (P10635 whole entry): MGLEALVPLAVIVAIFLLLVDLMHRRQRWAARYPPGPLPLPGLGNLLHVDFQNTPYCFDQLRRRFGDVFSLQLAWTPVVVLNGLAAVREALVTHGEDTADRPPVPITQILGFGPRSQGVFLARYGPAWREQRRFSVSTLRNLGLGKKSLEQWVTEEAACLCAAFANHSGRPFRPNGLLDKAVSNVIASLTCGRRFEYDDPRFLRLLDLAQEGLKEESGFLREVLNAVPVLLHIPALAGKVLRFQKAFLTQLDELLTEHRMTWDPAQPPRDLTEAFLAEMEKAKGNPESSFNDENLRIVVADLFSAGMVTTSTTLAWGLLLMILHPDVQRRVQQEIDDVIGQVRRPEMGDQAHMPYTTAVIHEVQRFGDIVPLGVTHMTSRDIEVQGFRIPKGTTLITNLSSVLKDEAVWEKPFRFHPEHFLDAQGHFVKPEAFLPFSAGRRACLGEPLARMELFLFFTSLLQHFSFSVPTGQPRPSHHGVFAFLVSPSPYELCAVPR
# [7] = Half life in dog liver microsomes; details: liver microsomes
# HCC1954 = assay: Growth inhibition of human HCC1954 cells after 5 days by SRB assay; format: functional; details: Homo sapiens, HCC1954, 120 h
# [8] = Half life in rat liver microsomes; details: liver microsomes
# Cytochrome P450 2C9 = Cytochrome P450 2C9 (Homo sapiens, UniProt P11712); assay: Inhibition of CYP2C9 (unknown origin) by fluorescence assay
# Sequence of Cytochrome P450 2C9 (P11712 whole entry): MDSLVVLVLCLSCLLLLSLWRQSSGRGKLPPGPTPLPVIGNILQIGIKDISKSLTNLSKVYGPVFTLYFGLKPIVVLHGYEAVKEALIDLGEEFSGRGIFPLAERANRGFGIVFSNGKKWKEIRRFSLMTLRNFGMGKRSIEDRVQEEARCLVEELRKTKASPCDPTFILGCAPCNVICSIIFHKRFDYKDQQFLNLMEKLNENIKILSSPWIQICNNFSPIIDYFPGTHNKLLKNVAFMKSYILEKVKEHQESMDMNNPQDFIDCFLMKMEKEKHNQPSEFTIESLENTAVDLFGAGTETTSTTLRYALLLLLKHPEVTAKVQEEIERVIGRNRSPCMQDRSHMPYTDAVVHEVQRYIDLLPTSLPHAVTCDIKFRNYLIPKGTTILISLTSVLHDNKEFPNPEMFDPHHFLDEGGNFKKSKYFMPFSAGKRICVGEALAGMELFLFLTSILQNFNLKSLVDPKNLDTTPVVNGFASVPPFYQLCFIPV
# [9] = Antitumor activity against human SW620 cells xenografted in CB-17 SCID mouse assessed as tumor growth inhibition at 3 mg/kg, po qd administered for 21 days; format: functional; details: SW-620, 504 h, read-out: TGI
# [10] = Half life in Sprague-Dawley rat at 1 mg/kg, iv; format: ADME, organism-based; design: dose 1 mg/kg, route intravenous; details: in vivo
# MDA-MB-468 [11] = assay: Antitumor activity against human MDA-MB-468 cells xenografted in CB-17 SCID mouse assessed as tumor growth inhibition at 9.4 mg/kg, po qd administered for 21 days; format: functional; details: MDA-MB-468, 504 h, read-out: TGI
# Mus musculus [12] = assay: Toxicity in CB-17 SCID mouse xenografted with human MDA-MB-468 cells assessed as loss in body weight at 3 to 9.4 mg/kg, po qd administered for 21 days relative to control; format: organism-based; design: dose 3-9.4 mg/kg, route oral; details: in vivo, 504 h
# MDA-MB-468 [13] = assay: Growth inhibition of human MDA-MB-468 cells after 5 days by SRB assay; format: functional; details: Homo sapiens, MDA-MB-468, 120 h
# [14] = Growth inhibition of human OVCAR3 cells after 5 days by SRB assay; format: functional; details: OVCAR-3, 120 h
# [15] = Growth inhibition of human BT20 cells after 5 days by SRB assay; format: functional; details: BT-20, 120 h
# [16] = Growth inhibition of human HMEC cells after 5 days by SRB assay; format: cell-based; details: HMEC cells
# [17] = Growth inhibition of human COLO205 cells after 5 days by SRB assay; format: functional; details: COLO 205, 120 h
# MCF7 = assay: Growth inhibition of human MCF7 cells after 5 days by SRB assay; format: functional; details: Homo sapiens, MCF7, 120 h
# [18] = Antitumor activity against human HCT116 cells xenografted in athymic CD-1 nude mouse assessed as tumor growth inhibition at MTD, po qd administered 1-on/3-off schedule up to day 21 measured on day 35; format: functional, HCT-116
# Mus musculus [19] = assay: Toxicity in CB-17 SCID mouse xenografted with human MDA-MB-468 cells assessed as mortality at 3 to 9.4 mg/kg, po qd administered for 21 days; format: organism-based; design: dose 3-9.4 mg/kg, route oral; details: in vivo, 504 h
# [20] = Antitumor activity against human HCT116 cells xenografted in athymic CD-1 nude mouse assessed as tumor growth inhibition at MTD, po qd administered 1-on/3-off schedule up to day 21; format: functional, HCT-116
# A549 [21] = assay: Antitumor activity against human A549 cells xenografted in CB-17 SCID mouse assessed as tumor growth inhibition at 3 mg/kg, po qd administered for 21 days; format: functional; details: A549, 504 h, read-out: TGI
# Canis familiaris = assay: Clearance in beagle dog at 1 mg/kg, iv; format: ADME, organism-based, Canis lupus familiaris; design: dose 1 mg/kg, route intravenous; details: in vivo
# [22] = Antitumor activity against human SW620 cells xenografted in CB-17 SCID mouse assessed as tumor growth inhibition at 9.4 mg/kg, po qd administered for 21 days; format: functional; details: SW-620, 504 h, read-out: TGI
# Cytochrome P450 2C19 = Cytochrome P450 2C19 (Homo sapiens, UniProt P33261); assay: Inhibition of CYP2C19 (unknown origin) by fluorescence assay
# Sequence of Cytochrome P450 2C19 (P33261 whole entry): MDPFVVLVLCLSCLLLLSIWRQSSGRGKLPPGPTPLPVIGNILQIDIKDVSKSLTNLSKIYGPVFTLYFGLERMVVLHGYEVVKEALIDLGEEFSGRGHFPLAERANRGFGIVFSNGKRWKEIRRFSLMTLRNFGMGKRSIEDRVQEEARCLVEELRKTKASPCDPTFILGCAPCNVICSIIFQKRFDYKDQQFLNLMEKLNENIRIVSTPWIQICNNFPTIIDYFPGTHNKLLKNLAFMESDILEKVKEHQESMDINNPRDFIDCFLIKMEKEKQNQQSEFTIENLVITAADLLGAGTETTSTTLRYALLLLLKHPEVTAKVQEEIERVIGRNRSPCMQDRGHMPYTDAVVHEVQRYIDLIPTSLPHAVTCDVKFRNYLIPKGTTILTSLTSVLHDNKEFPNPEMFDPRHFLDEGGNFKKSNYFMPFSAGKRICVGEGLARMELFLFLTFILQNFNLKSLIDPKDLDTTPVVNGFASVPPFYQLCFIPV
# A549 [23] = assay: Growth inhibition of human A549 cells after 5 days by SRB assay; format: functional; details: A549, 120 h
# [24] = Cmax in athymic CD1 nude mouse at 25 mg/kg, po by LC/MS/MS analysis; format: ADME, organism-based; design: dose 25 mg/kg, route oral; details: in vivo
# Rattus norvegicus = assay: Clearance in Sprague-Dawley rat at 1 mg/kg, iv; format: ADME, organism-based; design: dose 1 mg/kg, route intravenous; details: in vivo
# [25] = Growth inhibition of human CAL51 cells after 5 days by SRB assay; format: functional; details: CAL-51, 120 h
# Angiopoietin-1 receptor [26] = biological target: T2, Angiopoietin-1 receptor (Homo sapiens, UniProt Q02763); assay: Inhibition of TIE2 (unknown origin) by cell-based assay
# T2 sequence (Q02763 whole entry): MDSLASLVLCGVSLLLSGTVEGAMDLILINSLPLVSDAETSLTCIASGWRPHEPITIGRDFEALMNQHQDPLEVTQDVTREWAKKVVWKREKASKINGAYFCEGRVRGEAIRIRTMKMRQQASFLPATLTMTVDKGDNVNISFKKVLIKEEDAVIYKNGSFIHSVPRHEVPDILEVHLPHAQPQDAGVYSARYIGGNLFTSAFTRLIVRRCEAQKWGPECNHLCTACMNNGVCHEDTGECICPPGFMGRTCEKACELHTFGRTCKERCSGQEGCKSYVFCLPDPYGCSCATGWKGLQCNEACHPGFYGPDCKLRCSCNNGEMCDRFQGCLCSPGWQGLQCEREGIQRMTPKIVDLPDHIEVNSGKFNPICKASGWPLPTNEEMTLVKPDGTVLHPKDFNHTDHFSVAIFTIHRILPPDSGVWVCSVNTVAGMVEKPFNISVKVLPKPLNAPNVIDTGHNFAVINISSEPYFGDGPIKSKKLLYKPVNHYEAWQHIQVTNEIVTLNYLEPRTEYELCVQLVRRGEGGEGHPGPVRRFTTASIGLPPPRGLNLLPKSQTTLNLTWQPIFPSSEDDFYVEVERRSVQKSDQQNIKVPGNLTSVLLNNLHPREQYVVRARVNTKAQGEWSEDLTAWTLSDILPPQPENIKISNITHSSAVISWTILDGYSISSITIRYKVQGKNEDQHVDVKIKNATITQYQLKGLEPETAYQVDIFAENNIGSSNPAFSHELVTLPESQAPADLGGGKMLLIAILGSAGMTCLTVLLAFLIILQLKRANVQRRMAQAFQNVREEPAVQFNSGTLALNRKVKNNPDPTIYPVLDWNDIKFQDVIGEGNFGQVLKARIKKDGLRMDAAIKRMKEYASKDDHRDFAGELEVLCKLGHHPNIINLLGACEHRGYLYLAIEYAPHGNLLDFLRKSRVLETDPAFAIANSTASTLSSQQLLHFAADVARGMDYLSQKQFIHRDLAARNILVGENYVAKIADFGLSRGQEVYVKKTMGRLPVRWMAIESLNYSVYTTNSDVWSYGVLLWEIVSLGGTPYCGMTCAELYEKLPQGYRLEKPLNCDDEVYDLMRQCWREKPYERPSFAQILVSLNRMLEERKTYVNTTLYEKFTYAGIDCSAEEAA
# Angiopoietin-1 receptor [27] = biological target: T2, Angiopoietin-1 receptor; assay: Inhibition of TIE2 (unknown origin) by FRET analysis
# [28] = Toxicity in po dosed athymic CD-1 nude mouse xenografted with human HCT116 cells administered qd 1-on/3-off schedule up to day 21; format: organism-based, HCT-116; details: CD-1 athymic nude, in vivo
# [29] = Oral bioavailability in beagle dog at 5 mg/kg; format: ADME, organism-based, Canis lupus familiaris; details: in vivo
# MDA-MB-231 = assay: Growth inhibition of human MDA-MB-231 cells after 5 days by SRB assay; format: functional; details: Homo sapiens, MDA-MB-231, 120 h
# A549 [30] = assay: Antitumor activity against human A549 cells xenografted in CB-17 SCID mouse assessed as tumor growth inhibition at 9.4 mg/kg, po qd administered for 21 days; format: functional; details: A549, 504 h, read-out: TGI
# [31] = Half life in beagle dog at 1 mg/kg, iv; format: ADME, organism-based, Canis lupus familiaris; design: dose 1 mg/kg, route intravenous; details: in vivo
# [32] = AUC(infinity) in Sprague-Dawley rat at 1 mg/kg, iv; format: ADME, organism-based; design: time infinity, dose 1 mg/kg, route intravenous; details: plasma
# [33] = Half life in human liver microsomes; details: liver microsomes
# SW-620 = assay: Growth inhibition of human SW620 cells after 5 days by SRB assay; format: functional; details: SW-620, 120 h
# [34] = AUC in athymic CD1 nude mouse at 25 mg/kg, po by LC/MS/MS analysis; format: ADME, organism-based; design: dose 25 mg/kg, route oral; details: plasma
# [35] = AUC(infinity) in beagle dog at 1 mg/kg, iv; format: ADME, organism-based, Canis lupus familiaris; design: time infinity, dose 1 mg/kg, route intravenous; details: plasma
# [36] = AUC(infinity) in Sprague-Dawley rat at 5 mg/kg, po; format: ADME, organism-based; design: dose 5 mg/kg, route oral, time infinity; details: plasma
smiles,measurement,setting,value
COc1ccc2c(c1)[C@]1(C[C@H]1c1ccc3c(/C=C/c4ccc(CN5C[C@@H](C)O[C@@H](C)C5)cc4)n[nH]c3c1)C(=O)N2 [OCIFISERTIB],GI50,[1],5300 nM
same,inhibition (INH),Cytochrome P450 1A2,Not Active
same,half-life,[2],24 min
same,bioavailability,[3],21%
same,inhibition in vivo at 3 mg/kg,MDA-MB-468 [4],57%
same,GI50,[5],4 nM
same,AUC(0-inf),[6],3460 ng·h/mL
same,inhibition (INH),Cytochrome P450 2D6,Not Active
same,half-life,[7],43 min
same,GI50,HCC1954,5 nM
same,half-life,[8],53 min
same,IC50,Cytochrome P450 2C9,940 nM
same,inhibition in vivo at 3 mg/kg,[9],7%
same,half-life,[10],120 min
same,inhibition in vivo at 9.4 mg/kg,MDA-MB-468 [11],77%
same,Activity,Mus musculus [12],> 20%
same,GI50,MDA-MB-468 [13],6 nM
same,GI50,[14],18 nM
same,GI50,[15],58 nM
same,GI50 at 120 h,[16],9000 nM
same,GI50,[17],17 nM
same,GI50,MCF7,8 nM
same,TGI,[18],93%
same,Activity,Mus musculus [19],Non-toxic
same,TGI,[20],98%
same,inhibition in vivo at 3 mg/kg,A549 [21],32%
same,clearance,Canis familiaris,16 mL/min/kg
same,inhibition in vivo at 9.4 mg/kg,[22],86%
same,IC50,Cytochrome P450 2C19,1400 nM
same,GI50,A549 [23],5 nM
same,Cmax,[24],2200 ng/mL
same,clearance,Rattus norvegicus,31.7 mL/min/kg
same,GI50,[25],260 nM
same,EC50,Angiopoietin-1 receptor [26],117 nM
same,IC50,Angiopoietin-1 receptor [27],22 nM
same,MTD at 21 days,[28],39 mg/kg
same,bioavailability,[29],66%
same,GI50,MDA-MB-231,8600 nM
same,inhibition in vivo at 9.4 mg/kg,A549 [30],70%
same,half-life,[31],126 min
same,AUC(0-inf),[32],534 ng·h/mL
same,half-life,[33],> 60 min
same,GI50,SW-620,380 nM
same,AUC,[34],9800 ng·h/mL
same,AUC(0-inf),[35],1050 ng·h/mL
same,AUC(0-inf),[36],767 ng·h/mL
